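96-well plates; 48 h exposure; 5 concentrations. Endpoints by linear interpolation between flanking doses. Not reached: highest tested concentration assigned. Here, GI50 denotes the concentration required for 50% inhibition of growth.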 Activity calls are given as the source filed them. No stated cut-off is given here; in the data, active = GI50 up to about 1.1 µM and inactive = higher.
What was measured:
Test in all cases: NCI anticancer screen, dose series, 48 h
786-0 = test system: 786-0
A498 = test system: A498
A549 = test system: A549
ACHN = test system: ACHN
CAKI-1 = test system: CAKI-1
CCRF-CEM = test system: CCRF-CEM
COLO 205 = test system: COLO 205
DLD-1 = test system: DLD-1
DMS-114 = test system: DMS-114
DMS-273 = test system: DMS-273
EKVX = test system: EKVX
HCC 2998 = test system: HCC 2998
HCT-116 = test system: HCT-116
HCT-15 = test system: HCT-15
HL-60 = test system: HL-60
HOP-18 = test system: HOP-18
HOP-62 = test system: HOP-62
HOP-92 = test system: HOP-92
HT-29 = test system: HT-29
IGROV-1 = test system: IGROV-1
K562 = test system: K562
KM-20L2 = test system: KM-20L2
KM12 = test system: KM12
LOX IMVI = test system: LOX IMVI
LXFL 529 = test system: LXFL 529
M14 = test system: M14
M19-MEL = test system: M19-MEL
MOLT-4 = test system: MOLT-4
Malme-3M = test system: Malme-3M
NCI-H226 = test system: NCI-H226
NCI-H23 = test system: NCI-H23
NCI-H460 = test system: NCI-H460
NCI-H522 = test system: NCI-H522
OVCAR-3 = test system: OVCAR-3
OVCAR-4 = test system: OVCAR-4
OVCAR-5 = test system: OVCAR-5
OVCAR-8 = test system: OVCAR-8
RPMI-8226 = test system: RPMI-8226
RXF 393 = test system: RXF 393
RXF 631 = test system: RXF 631
SF-268 = test system: SF-268
SF-295 = test system: SF-295
SF-539 = test system: SF-539
SK-MEL-28 = test system: SK-MEL-28
SK-MEL-2 = test system: SK-MEL-2
SK-MEL-5 = test system: SK-MEL-5
SK-OV-3 = test system: SK-OV-3
SN12C = test system: SN12C
SNB-19 = test system: SNB-19
SNB-75 = test system: SNB-75
SNB-78 = test system: SNB-78
SR = test system: SR
SW-620 = test system: SW-620
TK-10 = test system: TK-10
U-251 = test system: U-251
UACC-257 = test system: UACC-257
UACC-62 = test system: UACC-62
UO-31 = test system: UO-31
XF498 = test system: XF498

With `CNCc1cc(OC)ccc1-c1ccc(OC)c(OC)c1OC` the GI50 (786-0) was > 100 µM (inactive), the GI50 (A498) was > 100 µM (inactive) and the GI50 (A549) was > 100 µM (inactive). The GI50 (ACHN) was > 100 µM (inactive), the GI50 (CAKI-1) was > 100 µM (inactive) and the GI50 (CCRF-CEM) was > 92.9 µM (inactive). The GI50 (COLO 205) was > 100 µM (inactive), the GI50 (DLD-1) was > 100 µM (inactive) and the GI50 (DMS-114) was 60.8 µM (inactive). The GI50 (DMS-273) was > 100 µM (inactive), the GI50 (EKVX) was > 74.8 µM (inactive) and the GI50 (HCC 2998) was > 88.7 µM (inactive). For the same molecule, the GI50 (HCT-116) was > 94.6 µM (inactive), the GI50 (HCT-15) was > 100 µM and the GI50 (HL-60) was 48.1 µM (inactive). For the same molecule, the GI50 (HOP-18) was > 32.5 µM (inactive), the GI50 (HOP-62) was > 100 µM (inactive) and the GI50 (HOP-92) was > 70.6 µM (inactive). For the same molecule, the GI50 (HT-29) was 82.6 µM (inactive), the GI50 (IGROV-1) was > 100 µM (inactive) and the GI50 (K562) was 51.9 µM (inactive). For the same molecule, the GI50 (KM-20L2) was > 100 µM (inactive), the GI50 (KM12) was > 85.9 µM (inactive) and the GI50 (LOX IMVI) was > 96.8 µM (inactive). For the same molecule, the GI50 (LXFL 529) was > 100 µM (inactive), the GI50 (M14) was > 100 µM (inactive) and the GI50 (M19-MEL) was > 100 µM (inactive). For the same molecule, the GI50 (MOLT-4) was 99.3 µM (inactive), the GI50 (Malme-3M) was > 100 µM (inactive) and the GI50 (NCI-H226) was > 100 µM (inactive). The GI50 (NCI-H23) was > 100 µM (inactive), the GI50 (NCI-H460) was > 92 µM (inactive) and the GI50 (NCI-H522) was > 100 µM (inactive). The GI50 (OVCAR-3) was > 70 µM (inactive), the GI50 (OVCAR-4) was > 80.9 µM (inactive) and the GI50 (OVCAR-5) was > 100 µM (inactive). The GI50 (OVCAR-8) was > 100 µM (inactive), the GI50 (RPMI-8226) was > 100 µM (inactive) and the GI50 (RXF 393) was 69.7 µM (inactive). The GI50 (RXF 631) was > 100 µM (inactive), the GI50 (SF-268) was > 100 µM (inactive) and the GI50 (SF-295) was 75 µM (inactive). The GI50 (SF-539) was > 100 µM (inactive), the GI50 (SK-MEL-28) was > 100 µM (inactive) and the GI50 (SK-MEL-2) was > 100 µM (inactive). For the same molecule, the GI50 (SK-MEL-5) was 64.3 µM (inactive), the GI50 (SK-OV-3) was > 100 µM (inactive) and the GI50 (SN12C) was > 100 µM (inactive). The GI50 (SNB-19) was > 100 µM (inactive), the GI50 (SNB-75) was 44.6 µM (inactive) and the GI50 (SNB-78) was > 100 µM (inactive). For the same molecule, the GI50 (SR) was > 100 µM (inactive), the GI50 (SW-620) was > 96.4 µM (inactive) and the GI50 (TK-10) was > 100 µM (inactive). For the same molecule, the GI50 (U-251) was > 100 µM (inactive), the GI50 (UACC-257) was > 100 µM (inactive) and the GI50 (UACC-62) was > 100 µM (inactive). For the same molecule, the GI50 (UO-31) was > 88.1 µM (inactive) and the GI50 (XF498) was 85.3 µM (inactive).
